# Values joined by “and” are separate entries in the source; they are usually repeats but may differ in a detail not shown here. Equal values may be shown once.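 96-well plates; 48 h exposure; 5 concentrations. Endpoints by linear interpolation between flanking doses. Not reached: highest tested concentration assigned. Definition used: TGI = concentration required for complete inhibition of growth.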
# Assays:
# Test in all cases: growth of human tumour cells (NCI), 48 h
# [1] = test system: TK-10 renal
# [2] = test system: HT29 colon
# [3] = test system: A549 NSCLC
# [4] = test system: KM12 colon
Structure (SMILES),TGI [1],TGI [2],TGI [3],TGI [4]
O=C(N=Nc1cccc(Cl)c1)NNc1cccc(Cl)c1,66.6 µM,43.5 µM,94.6 µM,–
O=c1[nH]nc(Cc2ccccc2)n1/N=C\c1ccccc1,> 100 µM,> 100 µM,> 100 µM,> 100 µM
O=C(CSc1nc2[nH]ncc2c(=O)[nH]1)c1ccc(Cl)cc1,> 100 µM,> 100 µM,> 100 µM,> 100 µM
CN(C)S(=O)(=O)/N=C/c1cccc(/C=N/S(=O)(=O)N(C)C)c1,> 100 µM,–,> 100 µM,> 100 µM
CNC(=O)N(CCC#N)CCCN(C(=O)NC)c1ccccc1,> 100 µM,> 100 µM,> 100 µM,> 100 µM
CO/N=C(\C(=O)N(C)n1cnnc1)c1csc(NC(c2ccccc2)(c2ccccc2)c2ccccc2)n1,> 10 µM,> 10 µM,> 10 µM,> 10 µM
O=c1oc2ccccc2c(O)c1/C=N/C(=S)NCCc1ccccc1,> 100 µM,> 100 µM,> 100 µM,> 100 µM
O=C1NC(=O)C2(CCCCCC2)N1,> 100 µM,> 100 µM,> 100 µM,> 100 µM
CC(=O)CSc1c(-c2ccccc2)c(=O)n(-c2ccccc2)c(=S)n1-c1ccccc1,> 100 µM,> 100 µM,> 100 µM,> 100 µM
COC(CC1(/C=C/O[Si](C(C)C)(C(C)C)C(C)C)C(=O)N(C)c2ccccc21)OC (stereo not given),–,–,> 100 µM,> 100 µM
CN(N)c1cc(=O)[nH]c(=O)[nH]1,> 100 µM,> 100 µM,> 100 µM,> 100 µM
CC(=O)Nc1ccc(-c2nc3ccccc3s2)cc1I,–,> 100 µM,> 100 µM,> 100 µM
CCN1C(=O)C(C)S/C1=N\NC(=O)CSc1nc2ccccc2c(=O)n1CC (stereo not given),> 100 µM,–,> 100 µM,> 100 µM
c1cc2c(c(NC3=NCCO3)c1)CCC2,> 100 µM,> 100 µM,> 100 µM,> 100 µM
c1ccc(CNCCCCNCCCNCc2ccccc2)cc1,77.4 µM,31 µM,36.2 µM,40.5 µM
COc1ccc2[nH]cc([C@@H]3C4CCC(C4)[C@H]3NCc3cccc(CN[C@H]4C5CCC(C5)[C@@H]4c4c[nH]c5ccc(OC)cc45)c3)c2c1,2.87 µM and 3.03 µM,1.81 µM and 0.63 µM,2.64 µM and 2.99 µM,0.95 µM and 1.34 µM
CC1=CC[C@@]2(CO)[C@@H]([C@@H]1C)[C@H]1CC[C@@H]3[C@@]4(C)CC[C@H](O)C(C)(C)[C@@H]4CC[C@@]3(C)[C@]1(C)C[C@@H]2O,44.4 µM,> 100 µM,> 100 µM,> 100 µM
CCOC(=O)[C@@]12C[C@](/C=C/OC)(O[Si](C)(C)C)[C@@]13c1cc(OC)c(OC)cc1CCN3C(=O)C2O (stereo not given in full),> 100 µM,> 100 µM,> 100 µM,> 100 µM
N#Cc1c(N)[nH]c(=S)c(C#N)c1-c1ccccc1,> 100 µM,> 100 µM,> 100 µM,> 100 µM

Structure (SMILES),TGI [1],TGI [2],TGI [3],TGI [4]
Clc1cc(Cl)cc(C2ON=C(c3ccccc3)N2C23CC4CC(CC(C4)C2)C3)c1 (stereo not given),> 10 µM,> 10 µM,> 10 µM,> 10 µM
COc1cc(C2C(C#N)=C(N)OC3=C2CCS(=O)(=O)c2ccc(C)cc23)cc(OC)c1OC (stereo not given),> 100 µM,> 100 µM,> 100 µM,> 100 µM
CCOC(=O)C(C)NC(=O)C(C)NC(=O)C(C)NC(=O)C(C)NC(=O)C(C)NC(=O)OCc1ccccc1 (stereo not given),> 100 µM,> 100 µM,> 100 µM,> 100 µM
CCOC(=O)c1cnc2n(c1=N)[C@H]1CCCC[C@@H]1N2,–,> 100 µM,> 100 µM,> 100 µM
COC(=O)/C=C1/CCC(C)(C(=O)NS(=O)(=O)c2ccc(C)cc2)C1(C)C (stereo not given),> 100 µM,–,> 100 µM,> 100 µM
Cc1nc(N/N=C/c2ccccc2Cl)[nH]c(=O)c1CCO,> 100 µM,> 100 µM,> 100 µM,> 100 µM
O=C(O)c1ccc(NC(NC(=O)C(C(F)(F)F)C(F)(F)F)(C(F)(F)F)C(F)(F)F)cc1,> 100 µM,> 100 µM,> 100 µM,–
CCOc1ccc(N/C(Cl)=C(Cl)\C(=C(\Nc2ccc(OCC)cc2)n2nnc3ccccc32)[N+](=O)[O-])cc1,17.1 µM,3.46 µM,66.8 µM,> 57.6 µM
CN(C)P(=O)(Oc1ccc(CC(NC(=O)OCc2ccccc2)C(=O)OCc2ccccc2)cc1)N(C)C (stereo not given),47 µM,24.6 µM,38.2 µM,40.3 µM
CC(C)(C)Nc1noc(=O)n1C(C)(C)C,> 100 µM,> 100 µM,> 100 µM,> 100 µM
Cc1cc(S(=O)(=O)Nc2cc(N)[nH]n2)c(SCc2nc(N)nc(N(C)C)n2)cc1Cl,> 10 µM,> 10 µM,> 10 µM,> 10 µM
C=C(C)[C@H]1C=C[C@@H](OC(=O)c2cccnc2)[C@@]23CO[C@@](C)([C@H](OC(=O)c4cccnc4)[C@@]4(OC(C)=O)C[C@H](C)[C@H](OCCC)[C@@H]4[C@H]2OC(C)=O)[C@H]13,> 15 µM,–,–,> 15 µM
Cc1ccc(S(=O)(=O)N2CCSCCN(S(=O)(=O)c3ccc(C)cc3)CCN(S(=O)(=O)c3ccc(C)cc3)CC2)cc1,–,> 100 µM,> 100 µM,–
Nc1ccn(C2CCC(CO)O2)c(=S)n1 (stereo not given),> 100 µM,> 100 µM,> 100 µM,> 100 µM
Cc1ccc(N=Nc2ccc(O)c(CN(C)C)c2)cc1,44.5 µM,32.3 µM,49.4 µM,37.9 µM
CCc1n[nH]c(=O)n1/N=C/c1ccc(C)cc1,> 100 µM,> 100 µM,> 100 µM,> 100 µM
N/N=C(\C(=O)Nc1ccc(Cl)cc1Cl)C(c1cnc2ccccc2n1)[N+](=O)[O-] (stereo not given),> 100 µM,> 100 µM,> 100 µM,> 100 µM
CCC[C@H](NS(=O)c1ccc(C)cc1)C(C(=O)OCC)=C(c1ccccc1)c1ccccc1 (stereo not given in full),97 µM,30.4 µM,96.9 µM,37.8 µM

# Reference: PubChem BioAssay (NCI)
